Measured values reported in article PMC7699892, “Repositioned Drugs for Chagas Disease Unveiled via Structure-Based Drug Repositioning” (International Journal of Molecular Sciences, 2020).

Assays:
T. cruzi = system: T. cruzi; set-up: method as in per drug in column Reference of Table 2; conditions: class of literature evidence of trypanocidal activity; ref per drug in Table 2; cited from earlier work; also: key: ? indicates unknown activity; + indicates indirect evidence of activity; ++ indicates direct evidence of activity
[1] = system: T. cruzi blood trypomastigote (Ninoa strain); assay: ex vivo evaluation against blood trypomastigotes, Ninoa strain; format: cell-based; conditions: Trypanosoma cruzi, 24 h at 4 °C
Source text: (§1) The high-priority hit drugs were subjected to experimental validation in vitro, ex vivo, and in vivo, together with a cytotoxicity assay. Ninoa and INC-5 strains of T. cruzi were used in this study. The Ninoa strain was obtained in 1986 by xenodiagnoses from an acute case of Chagas’ disease in Oaxaca, Mexico, whereas the INC-5 strain was obtained in 1997 from a chronic case of Chagas’ disease in a person in Guanajuato, Mexico.
(§2) Ex vivo evaluation of different FDA-approved drugs against Trypanosoma cruzi blood trypomastigotes. The ex vivo evaluation of the trypanocidal activity of the FDA-approved drugs was carried out according to the methodology described above. Blood from parasite infected animals was obtained from intracardiac puncture and diluted with phosphate-buffered saline (PBS), pH 7.2, until a concentration of 2 × 10^6 blood trypomastigotes/mL was obtained. From this, 195 µL of blood/well was placed in a 96-well plate and incubated at 4 °C for 24 h with 5 µL of each drug tested at different concentrations (5 µg/mL to […]). […] After incubation, live parasites were counted in a Neubauer chamber and the IC50 was calculated. Three independent experiments by triplicate were performed.

[2] = system: T. cruzi blood trypomastigote (INC-5 strain); assay: ex vivo evaluation against blood trypomastigotes, INC-5 strain; format: cell-based; conditions: Trypanosoma cruzi; ex vivo, INC-5 strain, 24 h at 4 °C; read-out: T.cruzi blood trypomastigote IC50 INC-5
Source text: as §1, §2

[3] = system: T. cruzi epimastigote (INC-5 strain); assay: in vitro evaluation against epimastigotes, INC-5 strain (resazurin); format: cell-based; conditions: Trypanosoma cruzi, 48 h at 28 °C
Source text: (§3) The high-priority hit drugs were subjected to experimental validation in vitro, ex vivo, and in vivo, together with a cytotoxicity assay. Ninoa and INC-5 strains of T. cruzi were used in this study. […] In vitro evaluation of different FDA-approved drugs against Trypanosoma cruzi epimastigotes. The epimastigote stage of Ninoa and INC5 strains of T. cruzi were used to evaluated the in vitro trypanocidal activity of different FDA-approved drugs. Both strains were maintained in liver infusion tryptose (LIT) medium, supplemented with 10% fetal bovine serum (FBS) and 0.1% penicillin–streptomycin. They were preserved by transferring 1 × 10^6 parasites/mL into a new culture medium every week. […] All compounds were initially prepared at 10 mg/mL, using dimethyl sulfoxide (DMSO) as diluent. Serial dilutions were performed using complemented LIT medium until concentrations of 100 to 0.46 µg/mL of each drug were obtained. […] After the incubation period, 20 µL of 2.5 mM resazurin solution were added to each well and incubated for 3 h. All assays were carried out in triplicate.

[4] = system: T. cruzi epimastigote (Ninoa strain); assay: in vitro evaluation against epimastigotes, Ninoa strain (resazurin); format: cell-based; conditions: Trypanosoma cruzi, 48 h at 28 °C
Source text: as §3

T. cruzi Ninoa strain = assay: in vivo short-term trypanocidal activity (parasitemia) in infected CD1 mice, Ninoa strain; set-up: species or system Trypanosoma cruzi in CD1 mice; conditions: for Parasitemia inhibition percentage over the time, 2 horas Ninoa / Parasitemia inhibition percentage over the time, 4 horas Ninoa / Parasitemia inhibition percentage over the time, 6 horas Ninoa: 100 mg/kg oral; for parasitemia inhibition: mice infected with Ninoa strain, single oral dose 100 mg/kg, eight hours after administration
Procedure: (§4) Parasitemia was monitored at 2, 4, 6, and 8 h after administration (see Figure 2).
(§5) CD1 strain mice, 6–8 weeks old, were used to maintain Ninoa and INC-5 strains of T. cruzi. Animals were given by the University of Science and Arts of Chiapas. To maintain the strains, animals were intraperitoneally inoculated every 14 days with 1 × 10^5 blood trypomastigote, obtained from parasite-infected mice. Parasitemia was monitored every three days by the Pizzi method. For this, 5 µL of blood from the caudal vein of infected mice were deposited on a slide and evenly distributed with an 18 × 18 mm coverslip. Parasite counting was performed by observing 15 microscopic fields using a 40 × objective lens. For the in vivo short term evaluation of the trypanocidal activity of the FDA-approved drugs, six groups of six CD1 mice each with homogeneous weight and parasitemia were used.
(§6) In vivo short-term evaluation of the trypanocidal activity of the FDA-approved drugs. Six groups of six CD1 female mice were infected with blood trypomastigotes of Ninoa and INC-5 strains following the methodology previously described in Romanha et al. and in Díaz-Chiguer et al.. At day 13 post-infection, when the infected mice reached an average of 5 × 10^6 parasites/mL, a single dose of the FDA-approved drugs at 100 mg/kg body weight was orally administered. Parasitemia was monitored following the Pizzi method at 2, 4, 6, and 8 h post-treatment […] using mineral oil as a vehicle. […] Mice examination was performed as stated in the Norma Official Mexicana (NOM-062-Z00-1999), published on August 2009.

T. cruzi INC-5 strain = assay: in vivo short-term trypanocidal activity (parasitemia) in infected CD1 mice, INC-5 strain; set-up: species or system Trypanosoma cruzi in CD1 mice; conditions: for Parasitemia inhibition percentage over the time, 2 horas INC-5 / Parasitemia inhibition percentage over the time, 4 horas INC-5 / Parasitemia inhibition percentage over the time, 6 horas INC-5: 100 mg/kg oral; for parasitemia inhibition: mice infected with INC-5 strain, single oral dose 100 mg/kg, eight hours after administration
Procedure: as §4, §5, §6

[5] = 6 horas (first column so headed)
[6] = 6 horas (second, last column so headed)

Compound	Trypan. Activity (T. cruzi)	IC50 [1] [µM]	IC50 [2] [µM]	IC50 [3] [µM]	further results
COc1cccc2c1C(=O)c1c(O)c3c(c(O)c1C2=O)C[C@@](O)(C(C)=O)C[C@@H]3O[C@H]1C[C@H](N)[C@H](O)[C@H](C)O1 [Aunomycin]	+				
O=C(Cn1ccnc1[N+](=O)[O-])NCc1ccccc1 [Benznidazole]		156 ± 0.11	130.6 ± 0.08	19.9 ± 0.23	
O=C(O)c1ccccc1 [Benzoic acid]	++				
Cc1ccc(-c2cc(C(F)(F)F)nn2-c2ccc(S(N)(=O)=O)cc2)cc1 [Celecoxib]		> 100	> 100	> 400	IC50 [4]: > 400 µM
CN(C)CCCC1(c2ccc(F)cc2)OCc2cc(C#N)ccc21 (stereo not shown) [Citalopram]	++				
Nc1nc(=O)c2nc(CNc3ccc(C(=O)N[C@@H](CCC(=O)O)C(=O)O)cc3)cnc2[nH]1 [Folic acid]		28.1 ± 0.01	21.5 ± 0.03	> 400	Parasitemia inhibition percentage over the time, 2 horas Ninoa (T. cruzi Ninoa strain): 100; Parasitemia inhibition percentage over the time, 4 horas Ninoa (T. cruzi Ninoa strain): 71; Parasitemia inhibition percentage over the time, 6 horas Ninoa (T. cruzi Ninoa strain; [5]): 42.8; Parasitemia inhibition percentage over the time, 6 horas Ninoa (T. cruzi Ninoa strain; [6]): 42.8; parasitemia inhibition (T. cruzi Ninoa strain): 57.2%; Parasitemia inhibition percentage over the time, 2 horas INC-5 (T. cruzi INC-5 strain): 100; Parasitemia inhibition percentage over the time, 4 horas INC-5 (T. cruzi INC-5 strain): 50; Parasitemia inhibition percentage over the time, 6 horas INC-5 (T. cruzi INC-5 strain; [5]): 33.3; Parasitemia inhibition percentage over the time, 6 horas INC-5 (T. cruzi INC-5 strain; [6]): 33.3; parasitemia inhibition (T. cruzi INC-5 strain): 66.7%; IC50 [4]: > 400 µM
O=C(O)P(=O)(O)O [Foscarnet]	++				
N[C@@H](CCC(=O)N[C@@H](CS)C(=O)NCC(=O)O)C(=O)O [Glutathione]		> 100	> 100	> 400	IC50 [4]: > 400 µM
CC1=C(/C=C/C(C)=C/C=C/C(C)=C\C(=O)O)C(C)(C)CCC1 [Isotretinoin]	++				
Nc1nc2c(c(=O)[nH]1)N(C=O)C(CNc1ccc(C(=O)N[C@@H](CCC(=O)O)C(=O)O)cc1)CN2 (stereo partly shown) [Leucovorin]		> 100	> 100	> 400	IC50 [4]: > 400 µM
CC12CC3CC(C)(C1)CC(N)(C3)C2 [Memantine]	++				
CN(C)c1ccc(O)c2c1C[C@H]1C[C@H]3[C@H](N(C)C)C(O)=C(C(N)=O)C(=O)[C@@]3(O)C(O)=C1C2=O [Minocycline]	++				
COc1ccc2cc([C@H](C)C(=O)O)ccc2c1 [Naproxen]		58.5 ± 0.07	38.3 ± 0.06	> 400	Parasitemia inhibition percentage over the time, 2 horas Ninoa (T. cruzi Ninoa strain): 100; Parasitemia inhibition percentage over the time, 4 horas Ninoa (T. cruzi Ninoa strain): 71; Parasitemia inhibition percentage over the time, 6 horas Ninoa (T. cruzi Ninoa strain; [5]): 28.5; Parasitemia inhibition percentage over the time, 6 horas Ninoa (T. cruzi Ninoa strain; [6]): 14.2; parasitemia inhibition (T. cruzi Ninoa strain): 85.8%; Parasitemia inhibition percentage over the time, 2 horas INC-5 (T. cruzi INC-5 strain): 100; Parasitemia inhibition percentage over the time, 4 horas INC-5 (T. cruzi INC-5 strain): 85.7; Parasitemia inhibition percentage over the time, 6 horas INC-5 (T. cruzi INC-5 strain; [5]): 71.4; Parasitemia inhibition percentage over the time, 6 horas INC-5 (T. cruzi INC-5 strain; [6]): 57.1; parasitemia inhibition (T. cruzi INC-5 strain): 42.9%; IC50 [4]: > 400 µM
NC(=O)c1cccnc1 [Nicotinamide]	++				
CC1CS(=O)(=O)CCN1/N=C/c1ccc([N+](=O)[O-])o1 (stereo not shown) [Nifurtimox]		167.1 ± 0.03	115.2 ± 0.17	6.47 ± 0.42	Parasitemia inhibition percentage over the time, 2 horas Ninoa (T. cruzi Ninoa strain): 100; Parasitemia inhibition percentage over the time, 4 horas Ninoa (T. cruzi Ninoa strain): 50; Parasitemia inhibition percentage over the time, 6 horas Ninoa (T. cruzi Ninoa strain; [5]): 27.0; Parasitemia inhibition percentage over the time, 6 horas Ninoa (T. cruzi Ninoa strain; [6]): 22.2; parasitemia inhibition (T. cruzi Ninoa strain): 77.8%; Parasitemia inhibition percentage over the time, 2 horas INC-5 (T. cruzi INC-5 strain): 100; Parasitemia inhibition percentage over the time, 4 horas INC-5 (T. cruzi INC-5 strain): 66.6; Parasitemia inhibition percentage over the time, 6 horas INC-5 (T. cruzi INC-5 strain; [5]): 55.5; Parasitemia inhibition percentage over the time, 6 horas INC-5 (T. cruzi INC-5 strain; [6]): 27.7; parasitemia inhibition (T. cruzi INC-5 strain): 72.3%; IC50 [4]: 7.09 ± 0.12 µM
CC(=O)O[C@H]1C(=O)[C@@]2(C)[C@H]([C@H](OC(=O)c3ccccc3)[C@]3(O)C[C@H](OC(=O)[C@H](O)[C@@H](NC(=O)c4ccccc4)c4ccccc4)C(C)=C1C3(C)C)[C@]1(OC(C)=O)CO[C@@H]1C[C@@H]2O [Paclitaxel]	++				
Nc1nc2[nH]cc(CCc3ccc(C(=O)N[C@@H](CCC(=O)O)C(=O)O)cc3)c2c(=O)[nH]1 [Pemetrexed]	+				
CC(=O)CCCCn1c(=O)c2c(ncn2C)n(C)c1=O [Pentoxifylline]	+	> 100	> 100	> 400	IC50 [4]: > 400 µM
CC(=O)[C@H]1CC[C@H]2[C@@H]3CCC4=CC(=O)CC[C@]4(C)[C@H]3CC[C@]12C [Progesterone]	+				
C=C[C@H]1C[N@@]2CC[C@H]1C[C@H]2[C@H](O)c1ccnc2ccc(OC)cc12 [Quinine]	++				
CC(N)C12CC3CC(CC(C3)C1)C2 (stereo not shown) [Rimantadine]	++				
CC(C)(C)NC(=O)[C@@H]1C[C@@H]2CCCC[C@@H]2CN1C[C@@H](O)[C@H](Cc1ccccc1)NC(=O)[C@H](CC(N)=O)NC(=O)c1ccc2ccccc2n1 [Saquinavir]	++				
Cn1c(=O)c2[nH]cnc2n(C)c1=O [Theophylline]		> 100	> 100	> 400	IC50 [4]: > 400 µM
CSc1ccc2c(c1)N(CCC1CCCCN1C)c1ccccc1S2 (stereo not shown) [Thioridazine]	++				
Nc1nc2nc[nH]c2c(=S)[nH]1 [Tioguanine]	++				
Nc1nc(N)c2nc(-c3ccccc3)c(N)nc2n1 [Triamterene]	++				
COc1cc(Cc2cnc(N)nc2N)cc(OC)c1OC [Trimethoprim]	++				
CC(=O)N[C@H]1[C@H]([C@H](O)[C@H](O)CO)OC(C(=O)O)=C[C@@H]1N=C(N)N [Zanamivir]	++				
